Measurements from the supplement of paper PMC5580409.

Each compound was assayed on Plasmodium falciparum 3D7 (assay: pEC50, asexual blood-stage growth inhibition). Conditions: 72 h.
Protocol: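 Held-out test set measured in the Guy lab in 2014 with the same procedure as the primary St. Jude screen. P. falciparum 3D7 blood-stage culture (2% hematocrit, 1% parasitemia) was treated with compound for 72 h at 37 °C, and growth was read by SYBR Green I fluorescence. EC50 came from a four-parameter Hill fit over a 10-point dilution series […].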

Point of comparison: `CN(C)CCCn1c(=N)n(CC(O)c2ccc(Br)cc2)c2ccccc21` (stereo not drawn), pEC50 5.54. Against it:
- Cc1ccc(C2CC(C(F)(F)F)n3nc(C(=O)N(Cc4ccccc4)Cc4ccccc4)cc3N2)cc1 (stereo not drawn) — lower, < 4.82
- CCN(CC)CC(O)COc1ccc(CNC2CCCCC2)cc1OC (stereo not drawn) — lower, < 4.82
- CC(C)N1CCN(Cc2cc(Br)ccc2O)CC1 — lower, < 4.82
- COc1cc(OC)cc(C(=O)Nc2ccc(-c3nc4cc(C)ccc4[nH]3)cc2)c1 — lower, 5.29
- COc1ccc(CC2(CO)CCN(S(=O)(=O)c3cccc(C(F)(F)F)c3)CC2)cc1 — lower, < 4.82
- OCCC1CN(Cc2cc(Cl)ccc2O)CCN1CCc1ccccc1 (stereo not drawn) — lower, < 4.82
- COc1ccccc1-c1c(C(F)(F)F)oc2c(CN3CCC(C)CC3)c(O)ccc2c1=O — lower, < 4.82
- OC(CNC1CC1)Cn1c2ccccc2c2ccccc21 (stereo not drawn) — lower, < 4.82
- COc1cc(CNn2nnnc2N)cc(Cl)c1OC — lower, < 4.82
- OC(CNCCc1ccccc1)Cn1c2ccc(Br)cc2c2cc(Br)ccc21 (stereo not drawn) — higher, 5.81
- OC(CNCc1cccc(Cl)c1)c1ccccc1 (stereo not drawn) — lower, < 4.82
- O=S(=O)(/C=C/c1ccccc1)N1CCC(CO)(Cc2cccc(C(F)(F)F)c2)CC1 — lower, < 4.82
- CCN(CC)CCN1C(=O)c2ccccc2NC1c1ccc(Br)cc1 (stereo not drawn) — higher, 5.74
- CCN(CC)c1nc(Nc2ccc(O)cc2)nc(Nc2cc(C)ccc2C)n1 — lower, < 4.82
- O=C1CC(c2ccc(Cl)c([N+](=O)[O-])c2)C2=C(CC(c3cccs3)CC2=O)N1 (stereo not drawn) — lower, < 4.82
- OC(CNc1ccccc1)Cn1c2ccccc2c2ccccc21 (stereo not drawn) — lower, < 4.82
- COc1ccccc1-c1c(C(F)(F)F)oc2c(CN3CCOCC3)c(O)ccc2c1=O — lower, < 4.82
- COc1ccc(C)cc1S(=O)(=O)N1CCC(CO)(Cc2cccc(C(F)(F)F)c2)CC1 — lower, < 4.82
- O=C(c1ccccc1)N1CCN(c2ccc([N+](=O)[O-])c(NC3CC3)c2)CC1 — lower, < 4.82
- COC(=O)[C@@H](NC(=O)c1cn(C2CCCCC2)cc(C(=O)NC(C)(C)C)c1=O)c1ccccc1 — lower, < 4.82
- C=CCn1nnnc1NCc1cc(Cl)c(OC)c(OC)c1 — lower, < 4.82
- COc1ccc(OC)c(C2CC(=O)C3=C(C2)NC(=O)CC3c2ccc(Cl)cc2Cl)c1 (stereo not drawn) — lower, < 4.82
- O=C(NCC1CCCCC1)c1cn(C2CC2)cc(C(=O)NC2CCN(Cc3ccccc3)CC2)c1=O — lower, < 4.82
- Oc1ccc(Br)cc1CN1CCN(Cc2cccc3ccccc23)CC1 — higher, 6.3
- COc1ccc(Oc2c(C(F)(F)F)oc3c(CN4CCCC(C)C4)c(O)ccc3c2=O)cc1 (stereo not drawn) — lower, < 4.82
- CCCCn1nnnc1NCc1ccc(OC)c(OC)c1OC — higher, 6.32
- CN(C)Cc1c(O)ccc2c(=O)c(Oc3ccc(C(C)(C)C)cc3)c(C(F)(F)F)oc12 — lower, 5.24
- COc1cccc(-c2cc(C(=O)N3CCN(Cc4ccccc4)CC3)c3ccccc3n2)c1 — lower, < 4.82
- OCCCNCC(O)Cn1c2ccccc2c2ccccc21 (stereo not drawn) — lower, < 4.82
- COc1ccccc1-c1cc(C(=O)N2CCC(Cc3ccccc3)CC2)c2ccccc2n1 — lower, < 4.82
- OC(CNCc1ccc(OCc2ccccc2)cc1)c1ccccc1 (stereo not drawn) — within 0.2 log units, 5.38
- CN(C)CC(O)Cn1c2ccc(Cl)cc2c2cc(Cl)ccc21 (stereo not drawn) — lower, < 4.82
- OC(CNc1cccc2ccccc12)Cn1c2ccccc2c2ccccc21 (stereo not drawn) — lower, < 4.82
- O=c1c(Oc2ccccc2Cl)c(C(F)(F)F)oc2c(CN3CCCCC3)c(O)ccc12 — lower, < 4.82
- Cc1ccc(NCC(O)Cn2c3ccccc3c3ccccc32)cc1 (stereo not drawn) — lower, < 4.82
- C=CCn1c(=O)/c(=C/C=C2\C=CN(CC)c3ccccc32)s/c1=C\c1sc(-c2ccccc2)c(-c2ccccc2)[n+]1CC — within 0.2 log units, 5.37
- Cc1ccc2c(c1)c1c3n2CCCN(Cc2ccccc2F)C3CCC1 (stereo not drawn) — lower, 5.01
- CC1=C(C(=O)OCCOc2ccccc2)C(c2ccc(F)cc2)C2=C(CC(c3ccccc3)CC2=O)N1 (stereo not drawn) — lower, < 4.82
- COC(=O)c1ccc(NC(=O)/C=C/c2ccccc2Cl)cc1 — lower, 5.26
- COc1ccc(CNC2CCCCC2)cc1OCC(O)CN(C)Cc1ccccc1 (stereo not drawn) — lower, < 4.82
- Cc1cccc(Oc2c(C(F)(F)F)oc3c(CN4CCCC4)c(O)ccc3c2=O)c1 — lower, < 4.82
- CCOc1cc(C2C(C(=O)OCCOc3ccccc3)=C(C)NC3=C2C(=O)CC(c2ccc(Cl)cc2)C3)cc(Cl)c1O (stereo not drawn) — lower, < 4.82
- O=C(Nc1cc(Cl)ccc1O)c1cnn2c1NC(c1ccc(Br)cc1)CC2C(F)(F)F (stereo not drawn) — lower, < 4.82
- COc1ccc(OC)c(C2CC(=O)NC3=C2C(=O)CC(c2ccc(OC)c(OC)c2)C3)c1 (stereo not drawn) — lower, < 4.82
- CCCCn1c(=N)n(CC(O)COc2ccc(Cl)cc2)c2ccccc21 (stereo not drawn) — lower, < 4.82
- CC(C)c1ccc(/C=C/C(=O)Nc2cccc(Cl)c2)cc1 — lower, < 4.82
- COc1ccc(CCNCC(O)Cn2c3ccccc3c3ccccc32)cc1OC (stereo not drawn) — lower, 5.26
- Cc1ccc2c(c1)c1c3n2CCCN=C3CCC1 — lower, < 4.82
- Cc1cc(S(=O)(=O)N2CCC(CO)(Cc3cccc(C(F)(F)F)c3)CC2)c(C)cc1Cl — lower, < 4.82
- OC(CNCCOc1ccccc1)Cn1c2ccccc2c2ccccc21 (stereo not drawn) — lower, < 4.82
- OCCC1CN(Cc2cc(Cl)ccc2O)CCN1CCCc1ccccc1 (stereo not drawn) — lower, < 4.82
- Cc1ccc(C(=O)Cn2c(=N)n(CCN3CCCCC3)c3ccccc32)cc1 — lower, < 4.82
